Data reported in patent US6995190B2 (Veterinary Solutions, priority 2001, dated 2006).

What was measured:
platelet cyclo-oxygenase = settings: horse, cited from earlier work
[1] = tested on: PRRS (Porcine Respiratory and Reproductive Syndrome) Virus; assay: PRRS virus outbreak in swine nursery, Ketoprofen orally; assay type: in vivo; settings: orally for 7 days, along with the same other therapy as controls
From the text: A swine client with a 10,000 head nursery was experiencing severe mortality due to a PRRS (Porcine Respiratory and Reproductive Syndrome) Virus outbreak. They had used antibiotics with only partial success and were seeing mortalities as high as 30 percent in the group. […] We also saw less chronic pigs in the treatment group 3% versus 15% in the controls.

[2] = tested on: horse with chronic laminitis; assay: Horse with chronic laminitis, Ketoprofen in the water, acceptance and intake; assay type: in vivo; settings: 1 mg per pound in the water for 2 weeks
swine influenza = assay type: in vivo, finishing hogs
[3] = 1 mg/pound for 3 days orally through the drinking water

SMILES	reductions in exudates eicosanoid concentrations (platelet cyclo-oxygenase; carrageenin tissue-cage exudate)	duration of inhibition of platelet cyclo-oxygenase (platelet cyclo-oxygenase; oral) [h]	chronic pigs [1] [%]	mortality [1] [%]	pain compared with previous treatment (phenylbutazone) [2]	morbidity at the time of the outbreak (swine influenza; [3]) [%]	mortality (swine influenza; [3]) [%]	average time to market, less than the control group (swine influenza; 1 mg/pound for 3 days orally through the drinking water, 150 pound finishing hogs marketed at 260 pounds) [days]	follow-up mass medication with antibiotics (swine influenza; two weeks after the outbreak)
CN=C1CCN(c2cccc(C(F)(F)F)c2)N1 [BW540C]	less pronounced	24							
CC(C(=O)O)c1cccc(C(=O)c2ccccc2)c1 (stereo not drawn) [Ketoprofen]			3	7	less painful	10	2.1	9	did not require any mass medication with antibiotics
